# From ChEMBL document CHEMBL3885861, “Open TG-GATES”
# Organism: Rattus norvegicus
# Experiment: Open TG-GATES - Regimen: Single
# Type: toxicity, organism-based, Sprague-Dawley
# Set-up: regimen Single, gender Male, age 6 weeks
# Settings: in vivo, po, 100 mg/kg, route gavage, dose level Middle; for APTT / Bas / Eos / Fbg / Hb / Ht / Lym / MCH / MCHC / MCV / Mono / Neu / PT / Plat / RBC / Ret / WBC: tissue Blood; for KIDNEY_L / KIDNEY_R / KIDNEY_TOTAL: tissue Kidney; for LIVER: tissue Liver; for A/G / ALP / ALT / AST / BUN / CRE / Ca / Cl / DBIL / GLC / IP / K / LDH / Na / PL / RALB / TBIL / TC / TG / TP / gamma-GTP: tissue Plasma
structure (smiles),measurement,setting,value
CCOC(=O)C(C)(C)Oc1ccc(Cl)cc1 [CLOFIBRATE],TERMINAL_BW,3 h,227.5 g
same,APTT,3 h,18.9 s
same,Bas,3 h,0%
same,Eos,3 h,1%
same,Fbg,3 h,231.4 mg/dL
same,Hb,3 h,13.6 g/dL
same,Ht,3 h,39%
same,Lym,3 h,76.6%
same,MCH,3 h,20.9 pg
same,MCHC,3 h,34.8%
same,MCV,3 h,60.1 fL
same,Mono,3 h,2.6%
same,Neu,3 h,19.2%
same,PT,3 h,12.3 s
same,Plat,3 h,126.5 x10_4/uL
same,RBC,3 h,649.6 x10_4/ul
same,Ret,3 h,7.1%
same,WBC,3 h,87.8 x10_2/uL
same,KIDNEY_L,3 h,1 g
same,KIDNEY_R,3 h,1 g
same,KIDNEY_TOTAL,3 h,1.9 g
same,LIVER,3 h,9.9 g
same,A/G,3 h,1.6
same,ALP,3 h,1012.4 IU/L
same,ALT,3 h,36.8 IU/L
same,AST,3 h,68.2 IU/L
same,BUN,3 h,10 mg/dL
same,CRE,3 h,0.3 mg/dL
same,Ca,3 h,10.7 mg/dL
same,Cl,3 h,102.6 meq/L
same,DBIL,3 h,0.2 mg/dL
same,GLC,3 h,201.6 mg/dL
same,IP,3 h,9 mg/dL
same,K,3 h,3.8 meq/L
same,LDH,3 h,203.6 IU/L
same,Na,3 h,139.6 meq/L
same,PL,3 h,157.6 mg/dL
same,RALB,3 h,3.5 g/dL
same,TBIL,3 h,0.3 mg/dL
same,TC,3 h,75.2 mg/dL
same,TG,3 h,121 mg/dL
same,TP,3 h,5.7 g/dL
same,gamma-GTP,3 h,0.4 IU/L
same,TERMINAL_BW,6 h,227.2 g
same,APTT,6 h,18.9 s
same,Bas,6 h,0%
same,Eos,6 h,1%
same,Fbg,6 h,232.6 mg/dL
same,Hb,6 h,13.7 g/dL
same,Ht,6 h,39.5%
same,Lym,6 h,79.6%
same,MCH,6 h,20.8 pg
same,MCHC,6 h,34.6%
same,MCV,6 h,60.1 fL
same,Mono,6 h,3.2%
same,Neu,6 h,16%
same,PT,6 h,12.5 s
same,Plat,6 h,132.6 x10_4/uL
same,RBC,6 h,657.6 x10_4/ul
same,Ret,6 h,7.3%
same,WBC,6 h,89.7 x10_2/uL
same,KIDNEY_L,6 h,1 g
same,KIDNEY_R,6 h,1 g
same,KIDNEY_TOTAL,6 h,2 g
same,LIVER,6 h,10.1 g
same,A/G,6 h,1.6
same,ALP,6 h,987.8 IU/L
same,ALT,6 h,29.8 IU/L
same,AST,6 h,62.8 IU/L
same,BUN,6 h,9.2 mg/dL
same,CRE,6 h,0.4 mg/dL
same,Ca,6 h,10.9 mg/dL
same,Cl,6 h,102.4 meq/L
same,DBIL,6 h,0.1 mg/dL
same,GLC,6 h,196.2 mg/dL
same,IP,6 h,9.4 mg/dL
same,K,6 h,4.2 meq/L
same,LDH,6 h,223.6 IU/L
same,Na,6 h,139 meq/L
same,PL,6 h,146.8 mg/dL
same,RALB,6 h,3.5 g/dL
same,TBIL,6 h,0.2 mg/dL
same,TC,6 h,73.8 mg/dL
same,TG,6 h,106.4 mg/dL
same,TP,6 h,5.7 g/dL
same,gamma-GTP,6 h,0.6 IU/L
same,TERMINAL_BW,9 h,222.9 g
same,APTT,9 h,17.6 s
same,Bas,9 h,0%
same,Eos,9 h,1%
same,Fbg,9 h,227.4 mg/dL
same,Hb,9 h,13.3 g/dL
same,Ht,9 h,38.2%
same,Lym,9 h,80.2%
same,MCH,9 h,21 pg
same,MCHC,9 h,34.8%
same,MCV,9 h,60.5 fL
same,Mono,9 h,1.8%
same,Neu,9 h,16.6%
same,PT,9 h,12.9 s
same,Plat,9 h,137.6 x10_4/uL
same,RBC,9 h,630.2 x10_4/ul
same,Ret,9 h,7.4%
same,WBC,9 h,82.1 x10_2/uL
same,KIDNEY_L,9 h,1 g
same,KIDNEY_R,9 h,1 g
same,KIDNEY_TOTAL,9 h,2.1 g
same,LIVER,9 h,9.6 g
same,A/G,9 h,1.6
same,ALP,9 h,1028.4 IU/L
same,ALT,9 h,26.6 IU/L
same,AST,9 h,59.4 IU/L
same,BUN,9 h,9.8 mg/dL
same,CRE,9 h,0.4 mg/dL
same,Ca,9 h,10.4 mg/dL
same,Cl,9 h,101.4 meq/L
same,DBIL,9 h,0.088 mg/dL
same,GLC,9 h,206.4 mg/dL
same,IP,9 h,10.3 mg/dL
same,K,9 h,3.5 meq/L
same,LDH,9 h,182.4 IU/L
same,Na,9 h,140.2 meq/L
same,PL,9 h,120.4 mg/dL
same,RALB,9 h,3.4 g/dL
same,TBIL,9 h,0.1 mg/dL
same,TC,9 h,59.4 mg/dL
same,TG,9 h,73 mg/dL
same,TP,9 h,5.6 g/dL
same,gamma-GTP,9 h,0.6 IU/L
same,TERMINAL_BW,24 h,236 g
same,APTT,24 h,19.1 s
same,Bas,24 h,0%
same,Eos,24 h,1%
same,Fbg,24 h,223.8 mg/dL
same,Hb,24 h,13.6 g/dL
same,Ht,24 h,38.9%
same,Lym,24 h,79.8%
same,MCH,24 h,21.4 pg
same,MCHC,24 h,34.9%
same,MCV,24 h,61.4 fL
same,Mono,24 h,3.2%
same,Neu,24 h,15.4%
same,PT,24 h,12.6 s
same,Plat,24 h,131 x10_4/uL
same,RBC,24 h,633.6 x10_4/ul
same,Ret,24 h,7%
same,WBC,24 h,93.4 x10_2/uL
same,KIDNEY_L,24 h,1 g
same,KIDNEY_R,24 h,1 g
same,KIDNEY_TOTAL,24 h,2 g
same,LIVER,24 h,12 g
same,A/G,24 h,1.6
same,ALP,24 h,871 IU/L
same,ALT,24 h,36 IU/L
same,AST,24 h,65.6 IU/L
same,BUN,24 h,14.8 mg/dL
same,CRE,24 h,0.4 mg/dL
same,Ca,24 h,10.9 mg/dL
same,Cl,24 h,100.8 meq/L
same,DBIL,24 h,0.088 mg/dL
same,GLC,24 h,202 mg/dL
same,IP,24 h,7.5 mg/dL
same,K,24 h,3.7 meq/L
same,LDH,24 h,219.2 IU/L
same,Na,24 h,139.6 meq/L
same,PL,24 h,134.2 mg/dL
same,RALB,24 h,3.4 g/dL
same,TBIL,24 h,0.1 mg/dL
same,TC,24 h,60.4 mg/dL
same,TG,24 h,106.4 mg/dL
same,TP,24 h,5.6 g/dL
same,gamma-GTP,24 h,1 IU/L
